Data on seven molecules can be found in publication PMC4051630, “A Comparison of Protein Kinases Inhibitor Screening Methods Using Both Enzymatic Activity and Binding Affinity Determination” (PLoS ONE, 2014).

Assay in all cases: Differential Scanning Fluorimetry (DSF) Tm shift
Type in all cases: binding
In general terms: Differential scanning fluorimetry follows unfolding on heating by fluorescence.

The target of one test is T1, AKT3 Catalytic Domain (Homo sapiens, UniProt Q9Y243).
T1 construct: AKT3 (Q9Y243); CD; His-tag; made in house; host or cells: Escherichia coli
The following applies: 2 µM protein, 10 µM inhibitor, average of 3 experiments, each in duplicate.

The next test concerns the target T2, CDK2 + Cyclin A (Homo sapiens, UniProt P24941).
T2 construct: CDK2 (P24941); 1–299; His-tag; made in house; host or cells: Escherichia coli
The following applies: CDK2 + Cyclin A; 2 µM protein, 10 µM inhibitor; average of 3 experiments, each in duplicate.

A further test has as its target T3, CDK2 + Cyclin E (Homo sapiens, UniProt P24941).
T3 construct: CDK2 (P24941); 1–299; His-tag; made in house; host or cells: Escherichia coli
Particulars: CDK2 + Cyclin E; 2 µM protein, 10 µM inhibitor; average of 3 experiments, each in duplicate.

For another test, the target named is T4, CHK2 Catalytic Domain (Homo sapiens, UniProt O96017).
T4 construct: For all of them, we expressed and purified the catalytic domain separately; His-tag; made in house; host or cells: Escherichia coli
The following applies: 2 µM protein, 10 µM inhibitor, average of 3 experiments, each in duplicate.

The target in another test is T5, DMPK Catalytic Domain (Homo sapiens, UniProt Q09013).
T5 construct: For all of them, we expressed and purified the catalytic domain separately; His-tag; made in house; host or cells: Escherichia coli
T5 sequence (Q09013 71-339 limits assumed): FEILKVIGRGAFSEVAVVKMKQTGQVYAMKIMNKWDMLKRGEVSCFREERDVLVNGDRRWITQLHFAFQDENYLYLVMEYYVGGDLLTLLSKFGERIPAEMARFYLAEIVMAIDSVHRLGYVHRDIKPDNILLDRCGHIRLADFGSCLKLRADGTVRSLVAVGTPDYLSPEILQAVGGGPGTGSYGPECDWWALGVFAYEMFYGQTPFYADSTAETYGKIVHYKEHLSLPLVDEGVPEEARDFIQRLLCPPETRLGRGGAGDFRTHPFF
Particulars: 2 µM protein, 10 µM inhibitor, average of 3 experiments, each in duplicate.

The target of another test is T6, FAK2 Catalytic Domain (Homo sapiens, UniProt Q14289).
T6 construct: For all of them, we expressed and purified the catalytic domain separately; His-tag; made in house; host or cells: Escherichia coli
Particulars: 2 µM protein, 10 µM inhibitor, average of 3 experiments, each in duplicate.

A further test has as its target T7, FES Catalytic Domain+SH2 (Homo sapiens, UniProt P07332).
T7 construct: for 8, we also made a longer version containing one or more additional domains; His-tag; made in house; host or cells: Escherichia coli
The following applies: 2 µM protein, 10 µM inhibitor, average of 3 experiments, each in duplicate.

The next test addresses T8, FES Catalytic Domain (Homo sapiens, UniProt P07332).
T8 construct: For all of them, we expressed and purified the catalytic domain separately; His-tag; made in house; host or cells: Escherichia coli
Particulars: 2 µM protein, 10 µM inhibitor, average of 3 experiments, each in duplicate.

The target of test [1] is T9, PAK4 Catalytic Domain+PBD (Homo sapiens, UniProt O96013).
T9 construct: for 8, we also made a longer version containing one or more additional domains; His-tag; made in house; host or cells: Escherichia coli
The following applies: 2 µM protein, 10 µM inhibitor, average of 3 experiments, each in duplicate.

Another test has as its target T10, PAK4 Catalytic Domain (Homo sapiens, UniProt O96013).
T10 construct: For all of them, we expressed and purified the catalytic domain separately; His-tag; made in house; host or cells: Escherichia coli
The following applies: 2 µM protein, 10 µM inhibitor, average of 3 experiments, each in duplicate.

The next test concerns the target T11, PAK7 Catalytic Domain (Homo sapiens, UniProt Q9P286).
T11 construct: For all of them, we expressed and purified the catalytic domain separately; His-tag; made in house; host or cells: Escherichia coli
The following applies: 2 µM protein, 10 µM inhibitor, average of 3 experiments, each in duplicate.

Test [2] addresses SRC Catalytic Domain+SH2+SH3 (Homo sapiens, UniProt P12931). Particulars: 2 µM protein, 10 µM inhibitor, average of 3 experiments, each in duplicate.
Test [3] has as its target T12, STK3 Catalytic domain+SARAH (Homo sapiens, UniProt Q13188).
T12 construct: for 8, we also made a longer version containing one or more additional domains; His-tag; made in house; host or cells: Escherichia coli
T12 sequence (Q13188 1-491): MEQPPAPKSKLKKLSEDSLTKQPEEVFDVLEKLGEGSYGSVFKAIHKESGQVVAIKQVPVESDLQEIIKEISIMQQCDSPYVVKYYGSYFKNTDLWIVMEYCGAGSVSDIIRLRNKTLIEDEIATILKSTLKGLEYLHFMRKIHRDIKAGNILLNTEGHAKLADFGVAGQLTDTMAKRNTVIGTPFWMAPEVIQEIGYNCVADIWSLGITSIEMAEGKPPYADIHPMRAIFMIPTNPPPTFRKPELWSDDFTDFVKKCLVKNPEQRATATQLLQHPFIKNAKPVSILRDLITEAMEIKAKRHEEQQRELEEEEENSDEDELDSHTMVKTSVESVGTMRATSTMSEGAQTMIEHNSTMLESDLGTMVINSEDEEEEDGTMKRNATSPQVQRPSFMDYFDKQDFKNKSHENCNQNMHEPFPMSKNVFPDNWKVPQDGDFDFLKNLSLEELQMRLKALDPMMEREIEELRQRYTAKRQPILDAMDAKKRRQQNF
Particulars: 2 µM protein, 10 µM inhibitor, average of 3 experiments, each in duplicate.

The next test deals with T13, STK3 Catalytic Domain (Homo sapiens, UniProt Q13188).
T13 construct: For all of them, we expressed and purified the catalytic domain separately; His-tag; made in house; host or cells: Escherichia coli
T13 sequence (Q13188 27-278 limits assumed): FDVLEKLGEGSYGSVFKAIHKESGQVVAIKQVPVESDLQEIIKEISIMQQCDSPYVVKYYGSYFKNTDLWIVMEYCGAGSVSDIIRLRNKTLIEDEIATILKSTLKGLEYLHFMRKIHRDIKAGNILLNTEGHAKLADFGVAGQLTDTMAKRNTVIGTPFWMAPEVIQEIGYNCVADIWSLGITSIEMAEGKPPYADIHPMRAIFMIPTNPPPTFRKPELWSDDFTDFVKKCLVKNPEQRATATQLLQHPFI
Particulars: 2 µM protein, 10 µM inhibitor, average of 3 experiments, each in duplicate.

T10 sequence (O96013 321-572 limits assumed): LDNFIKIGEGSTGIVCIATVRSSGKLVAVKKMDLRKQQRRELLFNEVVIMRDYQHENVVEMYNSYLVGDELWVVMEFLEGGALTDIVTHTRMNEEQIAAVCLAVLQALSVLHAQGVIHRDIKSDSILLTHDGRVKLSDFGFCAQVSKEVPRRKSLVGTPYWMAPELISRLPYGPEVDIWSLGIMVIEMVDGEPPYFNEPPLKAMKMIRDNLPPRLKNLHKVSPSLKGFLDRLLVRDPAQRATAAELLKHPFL
Sequence of SRC Catalytic Domain+SH2+SH3 (P12931 84-523 limits assumed): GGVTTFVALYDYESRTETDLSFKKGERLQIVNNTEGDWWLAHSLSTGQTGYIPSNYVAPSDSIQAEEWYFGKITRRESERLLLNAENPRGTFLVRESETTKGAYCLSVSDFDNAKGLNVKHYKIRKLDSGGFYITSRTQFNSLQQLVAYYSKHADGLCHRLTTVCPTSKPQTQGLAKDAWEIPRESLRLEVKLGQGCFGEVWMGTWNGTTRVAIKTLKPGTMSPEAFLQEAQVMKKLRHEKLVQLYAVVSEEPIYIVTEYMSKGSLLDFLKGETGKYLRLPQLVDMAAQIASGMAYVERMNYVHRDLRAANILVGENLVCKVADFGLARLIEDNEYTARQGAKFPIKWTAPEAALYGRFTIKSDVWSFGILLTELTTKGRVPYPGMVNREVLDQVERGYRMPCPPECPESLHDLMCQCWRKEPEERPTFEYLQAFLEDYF
T7 sequence (P07332 448-822 limits assumed): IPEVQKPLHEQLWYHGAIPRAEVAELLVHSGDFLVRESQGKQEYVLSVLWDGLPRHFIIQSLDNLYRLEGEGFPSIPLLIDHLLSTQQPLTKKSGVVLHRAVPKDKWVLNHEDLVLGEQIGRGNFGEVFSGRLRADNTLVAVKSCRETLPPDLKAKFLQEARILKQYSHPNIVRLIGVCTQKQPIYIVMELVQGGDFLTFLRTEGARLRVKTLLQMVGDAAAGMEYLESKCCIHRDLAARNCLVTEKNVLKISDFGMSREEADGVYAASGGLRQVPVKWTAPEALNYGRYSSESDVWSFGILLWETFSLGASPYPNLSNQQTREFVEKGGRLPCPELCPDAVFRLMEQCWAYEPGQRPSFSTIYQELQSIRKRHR
T8 sequence (P07332 561-822 limits assumed): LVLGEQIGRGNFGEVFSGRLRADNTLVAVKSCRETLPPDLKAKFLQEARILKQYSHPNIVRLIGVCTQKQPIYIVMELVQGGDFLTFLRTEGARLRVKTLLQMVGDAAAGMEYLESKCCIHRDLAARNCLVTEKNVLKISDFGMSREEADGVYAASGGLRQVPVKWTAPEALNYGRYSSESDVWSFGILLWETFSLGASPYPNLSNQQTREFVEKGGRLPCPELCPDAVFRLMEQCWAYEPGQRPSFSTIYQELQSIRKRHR
T11 sequence (Q9P286 449-700 limits assumed): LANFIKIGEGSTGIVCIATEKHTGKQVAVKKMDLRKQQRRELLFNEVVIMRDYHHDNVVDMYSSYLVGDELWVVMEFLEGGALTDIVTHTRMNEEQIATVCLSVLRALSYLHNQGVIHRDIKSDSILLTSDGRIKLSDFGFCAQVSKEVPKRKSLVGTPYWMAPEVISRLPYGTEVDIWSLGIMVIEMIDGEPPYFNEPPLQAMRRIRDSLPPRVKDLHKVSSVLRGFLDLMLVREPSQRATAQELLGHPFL
T1 sequence (Q9Y243 122-479): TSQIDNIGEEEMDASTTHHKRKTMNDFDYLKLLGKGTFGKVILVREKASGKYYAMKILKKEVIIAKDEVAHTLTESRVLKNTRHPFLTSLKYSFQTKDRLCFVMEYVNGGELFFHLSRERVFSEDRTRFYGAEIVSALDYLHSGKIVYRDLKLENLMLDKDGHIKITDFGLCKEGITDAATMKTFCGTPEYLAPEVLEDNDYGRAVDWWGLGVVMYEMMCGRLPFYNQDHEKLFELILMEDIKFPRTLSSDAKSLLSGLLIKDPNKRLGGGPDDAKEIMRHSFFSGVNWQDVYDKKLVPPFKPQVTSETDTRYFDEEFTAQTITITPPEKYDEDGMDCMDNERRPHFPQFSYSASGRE
T9 sequence (O96013 whole entry, the tested form may be a part): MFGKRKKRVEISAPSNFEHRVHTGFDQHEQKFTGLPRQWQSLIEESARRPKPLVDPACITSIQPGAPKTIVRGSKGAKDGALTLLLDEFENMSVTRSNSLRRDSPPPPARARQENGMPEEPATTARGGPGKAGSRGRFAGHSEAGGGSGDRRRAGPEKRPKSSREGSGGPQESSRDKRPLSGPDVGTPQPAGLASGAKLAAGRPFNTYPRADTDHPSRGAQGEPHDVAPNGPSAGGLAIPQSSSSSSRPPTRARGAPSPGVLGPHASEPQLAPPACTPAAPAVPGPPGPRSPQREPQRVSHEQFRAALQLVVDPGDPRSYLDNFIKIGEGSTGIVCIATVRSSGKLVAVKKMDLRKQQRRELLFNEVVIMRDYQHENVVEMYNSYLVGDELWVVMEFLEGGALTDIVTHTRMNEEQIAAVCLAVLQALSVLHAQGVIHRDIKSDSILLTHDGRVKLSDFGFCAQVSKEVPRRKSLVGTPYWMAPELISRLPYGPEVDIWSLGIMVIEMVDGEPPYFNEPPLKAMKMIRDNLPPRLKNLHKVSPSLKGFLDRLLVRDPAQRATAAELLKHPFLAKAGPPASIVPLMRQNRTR
T6 sequence (Q14289 425-683 limits assumed): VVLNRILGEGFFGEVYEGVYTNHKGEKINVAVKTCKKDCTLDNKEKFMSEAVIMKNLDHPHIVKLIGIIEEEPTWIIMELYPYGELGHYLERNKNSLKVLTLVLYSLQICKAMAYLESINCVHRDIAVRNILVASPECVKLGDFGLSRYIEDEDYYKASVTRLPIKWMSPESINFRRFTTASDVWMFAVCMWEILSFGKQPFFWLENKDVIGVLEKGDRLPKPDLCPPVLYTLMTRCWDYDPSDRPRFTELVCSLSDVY
T4 sequence (O96017 220-486 limits assumed): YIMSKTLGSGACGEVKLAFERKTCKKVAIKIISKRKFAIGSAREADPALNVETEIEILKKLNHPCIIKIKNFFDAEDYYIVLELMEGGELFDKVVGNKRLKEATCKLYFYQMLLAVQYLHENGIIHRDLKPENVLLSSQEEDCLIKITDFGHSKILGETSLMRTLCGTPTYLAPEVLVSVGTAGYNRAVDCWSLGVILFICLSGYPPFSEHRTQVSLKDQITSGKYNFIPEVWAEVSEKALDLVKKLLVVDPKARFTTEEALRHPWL

Turning to `Nc1ncnc2c1c(I)cn2[C@@H]1O[C@H](CO)[C@@H](O)[C@H]1O` [5-Iodotubercidin], the “Melting temperature (Tm) shift” value at AKT3 Catalytic Domain was 0.0 degrees Celcius; on CDK2 + Cyclin A it was 2.5 degrees Celcius; on CDK2 + Cyclin E, 1.3 degrees Celcius; on CHK2 Catalytic Domain, 0.6 degrees Celcius; on DMPK Catalytic Domain, 0.2 degrees Celcius; at FAK2 Catalytic Domain it was 0.4 degrees Celcius. Further, the “Melting temperature (Tm) shift” value on FES Catalytic Domain+SH2 is listed as 0.0 degrees Celcius; on FES Catalytic Domain, 1.0 degrees Celcius; in test [1], 0.7 degrees Celcius; at PAK4 Catalytic Domain, 0.7 degrees Celcius; at PAK7 Catalytic Domain, 0.4 degrees Celcius; in test [2] it was 0.1 degrees Celcius. Further, the “Melting temperature (Tm) shift” value in test [3] is on record as 1.5 degrees Celcius; at STK3 Catalytic Domain, 3.0 degrees Celcius.
`Cl.NCCCn1cc(C2=C(c3c[nH]c4ccccc34)C(=O)NC2=O)c2ccccc21` [Bisindolylmaleimide III, Hydrochloride]: the “Melting temperature (Tm) shift” value is on record as 0.6 degrees Celcius at AKT3 Catalytic Domain; 2.1 degrees Celcius at CDK2 + Cyclin A; 0.7 degrees Celcius at CDK2 + Cyclin E; 5.6 degrees Celcius on CHK2 Catalytic Domain; 4.2 degrees Celcius at DMPK Catalytic Domain; 0.7 degrees Celcius at FAK2 Catalytic Domain. For the same molecule, the “Melting temperature (Tm) shift” value at FES Catalytic Domain+SH2 turned out to be 0.5 degrees Celcius; on FES Catalytic Domain, 0.8 degrees Celcius; in [1], 1.6 degrees Celcius; on PAK4 Catalytic Domain, 1.4 degrees Celcius; at PAK7 Catalytic Domain, 1.1 degrees Celcius; in [2], 0.0 degrees Celcius. Moreover, the “Melting temperature (Tm) shift” value in test [3] was found to be 4.6 degrees Celcius; on STK3 Catalytic Domain, 1.8 degrees Celcius.
Turning to `CC(C)c1nn(-c2c(Cl)cccc2Cl)c2nc(Cc3ccc(OCCO)cc3)[nH]c(=O)c12` [Cdk/Crk Inhibitor], the “Melting temperature (Tm) shift” value turned out to be 0.0 degrees Celcius at AKT3 Catalytic Domain; 7.5 degrees Celcius on CDK2 + Cyclin A; 5.5 degrees Celcius at CDK2 + Cyclin E; 0.6 degrees Celcius on CHK2 Catalytic Domain; 1.3 degrees Celcius at DMPK Catalytic Domain; 0.5 degrees Celcius on FAK2 Catalytic Domain. Further, the “Melting temperature (Tm) shift” value on FES Catalytic Domain+SH2 came out at 0.1 degrees Celcius; at FES Catalytic Domain, 0.6 degrees Celcius; in test [1] it was 1.1 degrees Celcius; at PAK4 Catalytic Domain it was 1.9 degrees Celcius; at PAK7 Catalytic Domain, 2.0 degrees Celcius; in test [3], 0.2 degrees Celcius. Moreover, the “Melting temperature (Tm) shift” value on STK3 Catalytic Domain worked out at 0.8 degrees Celcius.
Consider `Cl.Cl.O=S(=O)(NCCNC/C=C/c1ccc(Br)cc1)c1cccc2cnccc12` [H-89, Dihydrochloride], for which the “Melting temperature (Tm) shift” value is 0.3 degrees Celcius on AKT3 Catalytic Domain; 0.5 degrees Celcius at CDK2 + Cyclin A; 0.3 degrees Celcius at CDK2 + Cyclin E; 0.5 degrees Celcius at CHK2 Catalytic Domain; 0.0 degrees Celcius on DMPK Catalytic Domain; 0.8 degrees Celcius on FAK2 Catalytic Domain. For the same molecule, the “Melting temperature (Tm) shift” value at FES Catalytic Domain+SH2 came to 0.2 degrees Celcius; on FES Catalytic Domain it was 0.4 degrees Celcius; in [1] it was 0.0 degrees Celcius; at PAK4 Catalytic Domain, 0.4 degrees Celcius; on PAK7 Catalytic Domain, 0.3 degrees Celcius; in [2], 0.0 degrees Celcius. Further, the “Melting temperature (Tm) shift” value in [3] turned out to be 0.4 degrees Celcius; on STK3 Catalytic Domain it was 0.0 degrees Celcius.
In the case of `O=C1c2ccccc2-c2n[nH]c3cccc1c23` [JNK Inhibitor II], the “Melting temperature (Tm) shift” value at AKT3 Catalytic Domain came to 0.1 degrees Celcius; at CDK2 + Cyclin A, 1.2 degrees Celcius; at CDK2 + Cyclin E, 0.3 degrees Celcius; at CHK2 Catalytic Domain it was 5.2 degrees Celcius; on DMPK Catalytic Domain it was 1.4 degrees Celcius; on FAK2 Catalytic Domain, 1.0 degrees Celcius. Besides, the “Melting temperature (Tm) shift” value on FES Catalytic Domain+SH2 is 0.9 degrees Celcius; at FES Catalytic Domain, 2.6 degrees Celcius; in test [1], 1.0 degrees Celcius; at PAK4 Catalytic Domain it was 1.1 degrees Celcius; at PAK7 Catalytic Domain, 0.7 degrees Celcius; in test [3], 1.3 degrees Celcius. For the same molecule, at STK3 Catalytic Domain, the “Melting temperature (Tm) shift” value is 2.0 degrees Celcius.
Turning to `N#CC(c1ccnc(NCCc2cccnc2)n1)c1nc2ccccc2s1` (stereo not shown) [JNK Inhibitor V], the “Melting temperature (Tm) shift” value is recorded as 0.0 degrees Celcius on AKT3 Catalytic Domain; 0.2 degrees Celcius on CDK2 + Cyclin A; 0.3 degrees Celcius on CDK2 + Cyclin E; 0.3 degrees Celcius on CHK2 Catalytic Domain; 0.8 degrees Celcius at DMPK Catalytic Domain; 0.4 degrees Celcius at FAK2 Catalytic Domain. Also, the “Melting temperature (Tm) shift” value on FES Catalytic Domain+SH2 amounted to 0.0 degrees Celcius; in test [1], 0.1 degrees Celcius; on PAK4 Catalytic Domain, 0.1 degrees Celcius; on PAK7 Catalytic Domain, 0.0 degrees Celcius; in test [2], 0.1 degrees Celcius; in test [3] it was 0.3 degrees Celcius. The “Melting temperature (Tm) shift” value at STK3 Catalytic Domain amounted to 0.2 degrees Celcius.
Take `O=c1c(O)c(-c2ccc(O)c(O)c2)oc2cc(O)c(O)c(O)c12` [Quercetagetin]: the “Melting temperature (Tm) shift” value at AKT3 Catalytic Domain was determined as 2.5 degrees Celcius; on CDK2 + Cyclin A, 0.2 degrees Celcius; at CDK2 + Cyclin E, 0.7 degrees Celcius; on CHK2 Catalytic Domain, 1.1 degrees Celcius; at FAK2 Catalytic Domain, 0.2 degrees Celcius; at FES Catalytic Domain+SH2, 0.1 degrees Celcius. In addition, the “Melting temperature (Tm) shift” value at FES Catalytic Domain worked out at 0.1 degrees Celcius; in test [1], 0.3 degrees Celcius; at PAK4 Catalytic Domain it was 0.0 degrees Celcius; on PAK7 Catalytic Domain, 0.1 degrees Celcius; in [2], 0.0 degrees Celcius; in test [3], 0.5 degrees Celcius. The “Melting temperature (Tm) shift” value on STK3 Catalytic Domain is recorded as 0.2 degrees Celcius.
